In patent publication US20130116323A1, “METHODS OF IMPROVING OR PRESERVING LUNG FUNCTION IN A PATIENT WITH A PULMONARY DISORDER” (The Leland Stanford Junior University, priority 2011, published 2013):
Entries after “also recorded” stand apart in the source; their conditions may differ.

Tests used:
CF patients [1] = experiment: Phase II randomized placebo-controlled trial of oral NAC in CF patients: lung function by spirometry; type: in vivo, human
Method: A 24-week (6-month) multi-center large clinical trial was designed with randomization stratified to improve balance of baseline characteristics between treatment groups, and to improve precision between group treatment effects.
(§1) A 6-month multi-center phase II clinical trial was performed to evaluate the effect of N-acetylcysteine (PharmaNAC®, BioAdvantex Pharma, Missisauga, Ontario Canada)) 900 mg effervescent tablets taken orally 3 times a day on airway inflammation in CF patients. 70 subjects were randomized to placebo or study drug. Randomization was stratified by study site, baseline FEV1, age, gender, chronic azithromycin, inhaled aztreonam for inhalation solution (AZLI) or tobramycin inhalation solution, USP (TOBI®, Novartis) and ibuprofen use. A cohort of 16 subjects served as an initial safety cohort.
General objectives of the study included determination of safety, tolerability and efficacy of NAC versus placebo at 0 week, 6 weeks, 12 week and 24 week time points. […]
(§2) The primary efficacy endpoint in this study were sputum elastase activity as measured by ELISA assay reflecting lung inflammation. […]
(§3) The effect of NAC on chronic airway inflammation was measured by examining the change in the log10 of neutrophil elastase activity measured in sputum from enrollment to the end of the trial. The effect of NAC on neutrophil recruitment, lung function, pulmonary and sinus exacerbations, and on weight of CF subjects was measured by: change in the sputum neutrophil count, change in IL-8 in sputum and plasma, change in GSH in whole blood, incidence of pulmonary exacerbations, number of and time to first pulmonary exacerbation, incidence and number of antibiotics for any reason, and change in FEV1. Patient-reported outcomes (PRO) were measured by the CFQ-R and CFRD instruments.

[2] = system: Human Neurophil Elastase (HNE); experiment: Phase II trial in CF patients: sputum neutrophil elastase activity (airway inflammation); type: in vivo; conditions: 900 mg orally 3 times a day, 24 weeks, versus placebo
Method: A 6-month multi-center phase II clinical trial was performed to evaluate the effect of N-acetylcysteine (PharmaNAC®, BioAdvantex Pharma, Missisauga, Ontario Canada)) 900 mg effervescent tablets taken orally 3 times a day on airway inflammation in CF patients. 70 subjects were randomized to placebo or study drug. Randomization was stratified by study site, baseline FEV1, age, gender, chronic azithromycin, inhaled aztreonam for inhalation solution (AZLI) or tobramycin inhalation solution, USP (TOBI®, Novartis) and ibuprofen use. A cohort of 16 subjects served as an initial safety cohort. The primary efficacy endpoint in this study were sputum elastase activity as measured by ELISA assay reflecting lung inflammation. […] The effect of NAC on chronic airway inflammation was measured by examining the change in the log10 of neutrophil elastase activity measured in sputum from enrollment to the end of the trial. The effect of NAC on neutrophil recruitment, lung function, pulmonary and sinus exacerbations, and on weight of CF subjects was measured by: change in the sputum neutrophil count, change in IL-8 in sputum and plasma, change in GSH in whole blood, incidence of pulmonary exacerbations, number of and time to first pulmonary exacerbation, incidence and number of antibiotics for any reason, and change in FEV1. Patient-reported outcomes (PRO) were measured by the CFQ-R and CFRD instruments.

CF patients [3] = experiment: Phase II trial in CF patients: pulmonary and sinus exacerbations and new antibiotic use; type: in vivo, human; conditions: 900 mg orally 3 times a day, 24 weeks, versus placebo
Method: as §1, with “cohort. […]” for “cohort.”
as §2, §3

CF patients [4] = experiment: Phase II trial in CF patients: initial 16 subject safety cohort; type: in vivo, human; conditions: first 16 subject safety cohort
Method: as §1
General objectives of the study included determination of safety, tolerability and efficacy of NAC versus placebo at 0 week, 6 weeks, 12 week and 24 week time points. More specific objectives included evaluation of: (a) effect of NAC on number of pulmonary and sinus exacerbations and antibiotic use, (b) effect of NAC on lung inflammation; (c) effect of NAC on pulmonary function; (d) effect of NAC on weight; (e) effect of NAC on quality of life (QOL) and (f) whether NAC causes pulmonary hypertension if used chronically in high doses.
Effect of long-term treatment with NAC in promoting the development of pulmonary hypertension (PH) in subjects with cystic fibrosis is examined. A panel of clinical and molecular studies, performed at 6-week intervals, is assessed. […]

[5] = compared with cysteine; cited from earlier work
[6] = compared with the stable cysteine disulfide; cited from earlier work
patients with COPD = conditions: 600 mg oral NAC per day, COPD patients with at least two exacerbations per year for 2 years; cited from earlier work
ARDS and ALI = conditions: randomized controlled trials; cited from earlier work
patients with IPF = conditions: 600 mg NAC three times daily added to prednisone plus azothioprine, one year, versus standard therapy alone; cited from earlier work
[7] = effects counter to those reported for NAC; cited from earlier work
[8] = 900 mg orally 3 times a day, 6-month period, versus placebo

Row | Compound | FEV1 (lung function) versus baseline (CF patients [1]; 900 mg effervescent tablets orally 3 times a day, 6-month trial period, versus placebo (P=0.02)) | FEF (lung function) (CF patients [1]; [8]) | FVC (lung function) (CF patients [1]; [8]) | airways inflammation, measured by HNE [2] | new antibiotic prescriptions (CF patients [3]) | number of pulmonary or sinus exacerbations (CF patients [3]) | adverse events (CF patients [4]) | pulmonary hypertension (CF patients [4]) | stability relative to cysteine [5] | solubility relative to cystine [6] | preventing deterioration in lung function and exacerbations (patients with COPD) | early mortality (ARDS and ALI) | deterioration of DLCO (patients with IPF) | deterioration of vital capacity (patients with IPF) | bioactive dose relative to NAC [7]
1 | CC(=O)N[C@@H](CS)C(=O)O [NAC, N-acetylcysteine] | maintained baseline FEV1; also recorded: maintained lung function | maintained lung function | maintained lung function | No difference was detected | No difference was detected | No difference was detected | No adverse events | no pulmonary hypertension | about 10 times | much more soluble | ineffective | no effect | slows the deterioration | slows the deterioration | –
2 | CC(=O)N[C@@H](CSSC[C@H](NC(C)=O)C(=O)O)C(=O)O [oxidized form of NAC, di-N-acetylcysteine] | – | – | – | – | – | – | – | – | – | – | – | – | – | – | 10-100 fold less than NAC
